Consider 37 compounds from patent US7326788B2, “Quinolinone derivatives as inhibitors of c-fms kinase” (Janssen Pharmaceutica N.V., priority 2003, dated 2008).

In the experiment the target is T1, c-fms (Homo sapiens, UniProt P07333).
T1 construct: 3DP
T1 sequence (P07333 20-972): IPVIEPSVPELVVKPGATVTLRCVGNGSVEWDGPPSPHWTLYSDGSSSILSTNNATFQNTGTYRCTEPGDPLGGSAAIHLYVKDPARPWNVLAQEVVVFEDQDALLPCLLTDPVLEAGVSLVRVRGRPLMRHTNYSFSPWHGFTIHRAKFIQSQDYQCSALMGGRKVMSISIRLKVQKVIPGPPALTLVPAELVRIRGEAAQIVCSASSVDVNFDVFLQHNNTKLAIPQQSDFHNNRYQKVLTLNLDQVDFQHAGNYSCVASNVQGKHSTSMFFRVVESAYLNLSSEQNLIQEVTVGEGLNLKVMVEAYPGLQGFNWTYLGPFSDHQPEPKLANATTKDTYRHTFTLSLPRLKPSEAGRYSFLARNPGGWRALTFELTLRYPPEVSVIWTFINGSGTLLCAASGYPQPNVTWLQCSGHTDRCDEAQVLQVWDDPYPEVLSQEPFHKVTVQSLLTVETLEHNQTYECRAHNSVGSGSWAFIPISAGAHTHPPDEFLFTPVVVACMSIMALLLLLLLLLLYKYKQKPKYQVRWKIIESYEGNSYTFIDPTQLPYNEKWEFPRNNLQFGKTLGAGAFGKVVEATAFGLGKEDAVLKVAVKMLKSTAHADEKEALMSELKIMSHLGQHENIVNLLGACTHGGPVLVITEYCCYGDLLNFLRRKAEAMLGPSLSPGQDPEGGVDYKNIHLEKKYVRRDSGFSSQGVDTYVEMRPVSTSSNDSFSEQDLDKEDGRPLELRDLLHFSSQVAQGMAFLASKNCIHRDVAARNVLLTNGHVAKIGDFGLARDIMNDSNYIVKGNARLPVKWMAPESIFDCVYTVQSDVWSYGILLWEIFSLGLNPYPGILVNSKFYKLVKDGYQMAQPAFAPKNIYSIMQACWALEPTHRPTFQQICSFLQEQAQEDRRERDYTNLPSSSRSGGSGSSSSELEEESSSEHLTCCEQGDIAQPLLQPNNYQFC
As to the kind of experiment: c-fms autophosphorylation, fluorescence polarization competition immunoassay. The experiment is classed as biochemical. As to conditions: 10 nM c-fms, 1 mM ATP, 5 mM MgCl2, 2% DMSO; averages of three independent measurements. As to the method: The assay was performed in black 96-well microplates (LJL BioSystems). The assay buffer used was 100 mM HEPES, pH 7.5, 1 mM DTT, 0.01% (v/v) Tween-20. Compounds were diluted in assay buffer containing 4% DMSO just prior to the assay. […] The kinase reaction was initiated by adding 2 μL of 5 mM ATP (Sigma) in assay buffer. The final concentrations in the assay were 10 nM c-fms, 1 mM ATP, 5 mM MgCl2, 2% DMSO. Control reactions were ran in each plate: in positive and negative control wells, assay buffer (made 4% in DMSO) was substituted for the compound; in addition, positive control wells received 1.2 μL of 50 mM EDTA.
The plates were incubated at room temperature for 45 min. At the end of the incubation, the reaction was quenched with 1.2 μL of 50 mM EDTA (EDTA was not added to the positive control wells at this point; see above). Following a 5-min incubation, each well received 10 μL of a 1:1:3 mixture of anti-phosphotyrosine antibody, 10X, PTK green tracer, 10X (vortexed), FP dilution buffer, respectively (all from PanVera, cat. #P2837). The plate was covered, incubated for 30 min at room temperature and the fluorescence polarization was read on the Analyst. The instrument settings were: 485 nm excitation filter; 530 nm emission filter; Z height: middle of well; G factor: 0.93. […] The reported IC50 values are averages of three independent measurements.
(In general: Polarisation of emitted light reports the rotation of a fluorescent probe.)
By IC50 is commonly meant the concentration needed to halve the response being measured. High values mean weaker potency, low ones greater potency. As for `Cc1cc(-c2c(-c3ccccc3F)c3cc(Cl)ccc3[nH]c2=O)on1`, the IC50 is less than 500 nM.

Turning to `Cc1cc(-c2c(N3CCCCC3)c3cc(Cl)ccc3[nH]c2=O)on1`, the concentration for half-maximal inhibition (IC50) is less than 500 nM.

`Cc1cc(-c2c(-c3ccc(OC(F)(F)F)cc3)c3cc(C#N)ccc3[nH]c2=O)on1`: the IC50 was 500 to 1000 nM.

`COc1cccc(-c2c(-c3cc(C)no3)c(=O)[nH]c3ccc(Cl)cc23)c1`: the half-maximal inhibitory concentration (IC50) was in the range of 500 to 1000 nM.

The compound `O=c1[nH]c2ccc(Cl)cc2c(-c2ccccc2)c1-c1cn(Cc2ccccc2)nn1` showed a concentration for half-maximal inhibition (IC50) of 500 to 1000 nM.

Compound `Cc1cc(-c2c(N3CCC(C)(C)CC3)c3cc(Cl)ccc3[nH]c2=O)on1` had an IC50 of 500 to 1000 nM.

The compound `Cc1cc(-c2c(-c3cccnc3)c3cc(Cl)ccc3[nH]c2=O)on1` registered an IC50 of 1000 to 10000 nM.

`O=C(O)c1cc(-c2c(-c3ccccc3)c3cc(Cl)ccc3[nH]c2=O)on1` returned an IC50 of less than 500 nM.

The compound `O=c1[nH]c2ccc(Cl)cc2c(-c2ccccc2)c1-c1cc(CCc2ccccc2)no1` came in with an IC50 of 1000 to 10000 nM.

`Cc1cc(-c2c(-c3cc4ccccc4o3)c3cc(Cl)ccc3[nH]c2=O)on1` yielded a concentration for half-maximal inhibition (IC50) of 1000 to 10000 nM.

Turning to `O=c1[nH]c2ccc(Cl)cc2c(-c2ccccc2)c1-c1cncc(Br)c1`, the IC50 is 1000 to 10000 nM.

The compound `CC(C)Cc1coc(-c2c(-c3ccccc3)c3cc(Cl)ccc3[nH]c2=O)n1` gave a half-inhibitory concentration (IC50) greater than 10000 nM.

As for `CCc1ccc(-c2c(-c3cnc[nH]3)c(=O)[nH]c3ccc(C#N)cc23)cc1`, the IC50 is less than 500 nM.

The compound `Cc1cc(-c2c(-c3ccc(C(C)C)cc3)c3cc(C#N)ccc3[nH]c2=O)on1` showed a 50% inhibitory concentration (IC50) of less than 500 nM.

`Cc1cc(-c2c(-c3ccccc3)c3cc(CO)ccc3[nH]c2=O)on1` yielded a 50% inhibitory concentration (IC50) greater than 10000 nM.

Compound `Cc1cc(-c2c(-c3ccccc3)c3cc(O)ccc3[nH]c2=O)on1` gave a half-inhibitory concentration (IC50) of 1000 to 10000 nM.

Compound `Cc1cc(-c2c(-c3ccc4ccccc4c3)c3cc(Cl)ccc3[nH]c2=O)on1` had a concentration for half-maximal inhibition (IC50) of 1000 to 10000 nM.

Take `Cc1cc(-c2c(-c3cccs3)c3cc(Cl)ccc3[nH]c2=O)on1`: the IC50 was less than 500 nM.

For `O=c1[nH]c2ccc(Br)cc2c(-c2ccccc2)c1-c1cnc[nH]1`, the half-maximal inhibitory concentration (IC50) is less than 500 nM.

`CC(C)(C)c1cc(-c2c(-c3ccccc3)c3cc(Cl)ccc3[nH]c2=O)on1` had an IC50 of less than 500 nM.

The compound `C=Cc1ccc(-c2c(-c3cc(C)no3)c(=O)[nH]c3ccc(C#N)cc23)cc1` yielded an IC50 of less than 500 nM.

In the case of `Cc1cc(-c2c(-c3ccccc3)c3ccc(Cl)cc3[nH]c2=O)on1`, the IC50 is greater than 10000 nM.

Consider `Cc1cc(-c2c(-c3cc4ccccc4s3)c3cc(Cl)ccc3[nH]c2=O)on1`, for which the half-inhibitory concentration (IC50) was in the range of 500 to 1000 nM.

With `Cc1cc(-c2c(-c3ccccc3)c3cc(C(=O)O)ccc3[nH]c2=O)on1`, the IC50 is 1000 to 10000 nM.

`Cc1cc(-c2c(C3=CCCCCC3)c3cc(C#N)ccc3[nH]c2=O)on1` displayed a concentration for half-maximal inhibition (IC50) of less than 500 nM.

On to `Cc1cc(-c2c(-c3ccccn3)c3cc(Cl)ccc3[nH]c2=O)on1`, for which the IC50 was 1000 to 10000 nM.

`CCc1ccc(-c2c(-c3cc(C)no3)c(=O)[nH]c3ccc(C#N)cc23)cc1`: the IC50 is less than 500 nM.

On to `CCOC(=O)c1cccc(-c2c(-c3ccccc3)c3cc(Cl)ccc3[nH]c2=O)c1`, for which the IC50 is greater than 10000 nM.

Regarding `O=c1[nH]c2ccc(Cl)cc2c(-c2ccccc2)c1-c1nc2ccccc2[nH]1`, the concentration for half-maximal inhibition (IC50) was in the range of 1000 to 10000 nM.

The compound `O=c1[nH]c2ccc(Cl)cc2c(-c2ccccc2)c1-c1nnn[nH]1` had an IC50 greater than 10000 nM.

`O=c1[nH]c2ccc(Cl)cc2c(-c2ccccc2)c1-c1cccnc1` showed a 50% inhibitory concentration (IC50) of 1000 to 10000 nM.

The compound `CC(=O)Nc1cc(-c2c(-c3ccccc3)c3cc(Cl)ccc3[nH]c2=O)on1` showed a concentration for half-maximal inhibition (IC50) of 1000 to 10000 nM.

`Cc1cc(-c2c(-c3cccc(O)c3)c3cc(Cl)ccc3[nH]c2=O)on1` gave a half-inhibitory concentration (IC50) of less than 500 nM.

Turning to `Cc1cc(-c2c(-c3ccccc3)c3cccc(Cl)c3[nH]c2=O)on1`, the concentration for half-maximal inhibition (IC50) is greater than 10000 nM.

In the case of `Cc1cc(-c2c(-c3ccccc3)c3cc(C(O)CO)ccc3[nH]c2=O)on1` (stereo not shown), the 50% inhibitory concentration (IC50) was greater than 10000 nM.

`O=c1[nH]c2ccc(Cl)cc2c(-c2ccccc2)c1-c1ccccn1` displayed an IC50 of 1000 to 10000 nM.

`Cc1cc(-c2c(-c3ccccc3)c3cc(Br)ccc3[nH]c2=O)on1` had an IC50 of less than 500 nM.
